Experimental data reported in patent US20050136444A1 (priority 2003, published 2005).
Entries after “also recorded” stand apart in the source; their conditions may differ. Structures can show the parent of a compound that is named as a salt. Where two headings read alike, the source gives them in different places. Each block holds one compound with its values, some of them ahead of it.

Tests used:
NPFF2b = target: T1, NPFF2b (Homo sapiens, UniProt Q9Y5X5); assay: cAMP assay in transiently transfected HEK-T cells, NPFF2; assay type: cell-based; conditions: for EC50: cAMP data, Table 2, HEK-T cells, read-out: NPFF2b pEC50 Mean (converted)
T1 construct: expressed in transfected cells; host or cells: HEK-T
Method: (§1) An assay was established for measuring cAMP in transiently transfected cells that takes advantage of the fact that most cells that are transfected with one gene, can be simultaneously transfected with other genes. Thus, the NPFF1 and NPFF2 receptors were transfected along with a Gs-coupled receptor (EP2) at a ratio of 5:1.
This set up was routinely used for the transfection of HEK-T cells with NPFF1 and NPFF2 receptors. […] Cells were incubated for 15 minutes at 37° C. At the end of incubation, cells were lysed and the remainder of the assay performed as per DiscoveRx protocol.
(§2) Cells were incubated for another 15 minutes at 37° C. following which the cells were lysed and processed as per kit protocol.

NPFF1 = NPFF1 (Homo sapiens, UniProt Q9GZQ6); assay: cAMP assay in transiently transfected HEK-T cells, NPFF1; assay type: cell-based; set-up: expressed in transfected cells; conditions: for Emax: HEK-T cell, read-out: NPFF1 % Efficacy Mean; for EC50: read-out: NPFF1 pEC50 Mean (converted)
Source text: as §1, with “5:1. […] Improvement was also detected in the sensitivity of the assay in some cases when cells are co-transfected with AC5 at ½-⅕ of the amount of DNA of the Gi-coupled receptor studied.” for “5:1.”
This set up was routinely used for the transfection of HEK-T cells with NPFF1 and NPFF2 receptors. After 48 hours the cAMP assay was set up using DiscoveRx assay protocol with transfected cells in suspension in the presence of varying concentrations of the NPFF ligands and 300 nM of […] in white bottom plates. Cells were incubated for 15 minutes at 37° C. At the end of incubation, cells were lysed and the remainder of the assay performed as per DiscoveRx protocol.
as §2

[1] = test system: Compound 2616-induced Tactile Allodynia; assay: Compound 2616-induced Tactile Allodynia in naive rats, effect of dPQR; assay type: in vivo, rat; conditions: 10 mg/kg, i.p., 75 min post-injection, vs vehicle; Hydrochloride
Method: To confirm that the pronociceptive actions of Compound 2616 were mediated via NPFF1 receptors we performed a pharmacological experiment where we administered dPQR (Dansyl-Pro-Gln-Arg, a reported NPFF antagonist, custom synthesized by Phoenix Pharmaceuticals) to rats treated with Compound 2616. Baseline paw withdrawal thresholds were obtained in naive rats. Following testing, the rats received either vehicle or Compound 2616 (10 mg/kg, i.p.). […] Half of the rats that received Compound 2616 were then injected with either vehicle or dPQR (30 mg/kg, i.p.).

[2] = test system: Carrageenan-induced Thermal Hyperalgesia; assay: Carrageenan-induced Thermal Hyperalgesia (hot plate); assay type: in vivo, rat; conditions: for hot plate latencies in vehicle-treated (no carrageenan) rats: 10 mg/kg; for calculated A50, reversal of thermal hyperalgesia: 95% CI; for reversal of carrageenan-induced thermal hyperalgesia: rats, 1, 3 and 10 mg/kg, hot plate
Method: Naive male Sprague-Dawley rats (175-200 g) were assessed for their responsiveness to a noxious thermal stimulus. Response latencies were measured using the hot plate test. Rats were placed in a plexiglass enclosure on a thermostatically controlled metal plate maintained at 52° C. […] Following testing, an animal model of acute inflammatory pain was created by injecting 100 μl of 2% λ-carrageenan ion to a hind paw. Three hours after carrageenan injection, hot plate latencies were again obtained. A significant reduction in the hot plate latency was interpreted as the presence of thermal hyperalgesia. Rats were injected with compound or vehicle and then tested at various time-points following drug administration. Data were converted to % Maximum Possible Effect (% MPE) by the formula, % MPE=((test-post-inflammatory)/(naive-post-inflammatory))*100, where the test score is the hot plate latency obtained after compound administration, the post-inflammatory score is the average response obtained 3 hr post-carrageenan, and the naive score is the average response obtained prior to manipulation. Additionally, paw thickness was measured (with a micrometer) following testing in order to quantify edema. Although none of the compounds tested reversed carrageenan-induced edema formation (data not shown), these compounds produced a dose-related reversal of carrageenan-induced thermal hyperalgesia.
Rats were injected (i.paw.) with 100 μl of 2% carrageenan or vehicle (dH2O) in order to produce a state of acute inflammatory pain. […] Rats were then treated with various doses of Compound 1045 (1, 3 and 10 mg/kg, i.p.) and hot plate latencies were tested across a period of 3 hours.
Rats were injected (i.paw.) with 100 μl of 2% carrageenan or vehicle (dH2O) in order to produce a state of acute inflammatory pain.
Rats were injected (i.paw.) with 100 μl of 2% carrageenan or vehicle (dH2O) in order to produce a state of acute inflammatory pain. […] Rats were then treated with various doses of Compound 3099 (1, 3 and 10 mg/kg, i.p.) and hot plate latencies were tested across a period of 3 hours.

[3] = test system: 52° C. Water Tail Flick Test; assay: 52° C. Water Tail Flick Test, intrathecal administration; assay type: in vivo, rat; conditions: rats, morphine 3, 10, 30 μg, NPFF 100 μg, 1045 11.6 or 115.5 μg, 1DME 5.6, 55.6 or 556.0 μg
Method: Rats were implanted with chronically indwelling intrathecal catheters (PE-10; 7.5 cm) allowing for the delivery of compounds to the lumbar spinal cord. As a positive control, rats were treated with various doses of morphine (3, 10 and 30 μg).
Rats were implanted with chronically indwelling intrathecal catheters (PE-10; 7.5 cm) allowing for the delivery of compounds to the lumbar spinal cord.
Rats were implanted with chronically indwelling intrathecal catheters (PE-10; 7.5 cm) allowing for the delivery of compounds to the lumbar spinal cord. In order to rule out the possibility that the lack of antinociception produced by NPFF was due to the degradation of the peptide we administered 1DME (a stable NPFF analog).

[4] = test system: formalin-induced flinching; assay: Formalin Flinching; assay type: in vivo, rat; conditions: rats, 10 mg/kg i.p. 15 min prior to formalin
Method: Naive male Sprague-Dawley rats (175-200 g) were injected with a test compound followed by an injection of 50 μl of a 5.0% formalin solution into the dorsal surface of a hind paw and then placed in individual plastic cages for observation. The number of nociceptive responses (i.e., paw flinches/licks/bites) was counted for a period of 60 min following formalin injection. […] Compounds were administered 15 min prior to formalin injection. The results are depicted in FIG. 4.
(§3) A model of tonic pain was created in rats by administering an injection of 5.0% formalin solution (50 μl) into the dorsal surface of a hind paw and then placing the rat in an individual plastic cage for observation. Paw flinches/licks/bites are counted for a period of 60 min. Rats received either vehicle or Compound 3099 (10 mg/kg, i.p.) 15 min prior to the formalin injection. […] This finding is consistent with our previous data.
as §3, with “min.” for “min. Rats received either vehicle or Compound 3099 (10 mg/kg, i.p.) 15 min prior to the formalin injection.”

[5] = cAMP data, Table 2, HEK-T cells

T1 sequence (Q9Y5X5 103-522 limits assumed): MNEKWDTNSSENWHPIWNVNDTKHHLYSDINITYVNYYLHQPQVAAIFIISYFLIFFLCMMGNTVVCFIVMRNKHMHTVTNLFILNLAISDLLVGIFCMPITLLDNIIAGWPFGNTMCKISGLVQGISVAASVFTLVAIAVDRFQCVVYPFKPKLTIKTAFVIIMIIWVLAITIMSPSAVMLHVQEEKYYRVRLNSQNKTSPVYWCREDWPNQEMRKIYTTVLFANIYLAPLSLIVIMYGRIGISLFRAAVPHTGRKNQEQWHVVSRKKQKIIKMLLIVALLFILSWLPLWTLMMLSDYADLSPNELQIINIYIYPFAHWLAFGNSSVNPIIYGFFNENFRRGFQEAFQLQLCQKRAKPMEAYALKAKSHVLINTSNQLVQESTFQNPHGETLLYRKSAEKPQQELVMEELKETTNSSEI
NPFF1, sequence (Q9GZQ6 whole entry, species assumed): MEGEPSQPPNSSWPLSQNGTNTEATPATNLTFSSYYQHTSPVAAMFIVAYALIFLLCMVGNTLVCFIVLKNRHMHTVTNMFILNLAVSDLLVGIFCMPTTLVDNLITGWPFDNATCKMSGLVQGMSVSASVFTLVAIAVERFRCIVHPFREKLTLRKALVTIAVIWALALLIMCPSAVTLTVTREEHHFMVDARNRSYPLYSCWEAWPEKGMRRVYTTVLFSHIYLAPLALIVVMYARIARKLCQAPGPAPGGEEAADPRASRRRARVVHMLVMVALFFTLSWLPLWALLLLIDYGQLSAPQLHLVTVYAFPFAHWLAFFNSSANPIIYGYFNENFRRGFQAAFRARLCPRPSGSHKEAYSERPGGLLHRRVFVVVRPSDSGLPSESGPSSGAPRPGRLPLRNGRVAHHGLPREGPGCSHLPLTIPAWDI

SMILES: NC(N)=NN=Cc1ccc(-c2ccccc2C(F)(F)F)o1 (racemic) [Compound 2616, 1-[(5-(2-(Trifluoromethyl)phenyl)-furan-2-yl)-methyleneamino]guanidine Hydrochloride]
- Emax (NPFF2b; HEK-T cell, read-out: NPFF2b % Efficacy Mean): 114%
- EC50 (NPFF2b): 3.16 µM
- Emax (NPFF1): 93%
- EC50 (NPFF1; [5]): 1.26 µM
- paw withdrawal thresholds / tactile sensitivity of naive rats [1]: markedly decreased; also recorded: resulted in an increased sensitivity to innocuous tactile stimulation

SMILES: NC(N)=N/N=C/c1ccc(Cl)c(Cl)c1 [Compound 1045, 1-(3,4-Dichlorobenzylideneamino)guanidine Hydrochloride]
- hot plate latencies in vehicle-treated (no carrageenan) rats [2]: did not significantly alter sensitivity to noxious thermal stimulation
- maximum efficacy, reversal of thermal hyperalgesia ([2]; carrageenan-treated rats, i.p.): 57.6%
- calculated A50, reversal of thermal hyperalgesia ([2]; carrageenan-treated rats, i.p.): 7.8 mg/kg
- reversal of carrageenan-induced thermal hyperalgesia ([2]; i.p.): dose-related reversal of thermal hyperalgesia
- carrageenan-induced edema formation in the hind paw ([2]; rats, paw thickness): did not significantly alter edema formation
- antinociception in 52° C. water tail flick test [3]: failed to elicit antinociception

- EC50 (NPFF2b): 6.31 µM
- Emax (NPFF1; [5]): 23%
- EC50 (NPFF1; [5]): 15.8 µM
SMILES: Cl.N=C(N)N/N=C/c1ccc(Br)c(Br)c1 [Compound 3093, 1-(3,4-Dibromobenzylideneamino)guanidine Hydrochloride]
- formalin-induced flinching, phase I ([4]; 0-10 min post-formalin): inactive
- inhibition of formalin-induced flinching, phase II ([4]; 15-60 min post-formalin): ~62.1 % inhibition
- hot plate latencies in vehicle-treated (no carrageenan) rats [2]: did not significantly alter the hot plate latencies
- time of peak effect after administration ([2]; carrageenan-treated rats, i.p.): 30 to 60 min
- calculated A50, reversal of thermal hyperalgesia ([2]; carrageenan-treated rats, i.p.): 1.6 mg
- reversal of carrageenan-induced thermal hyperalgesia ([2]; i.p.): dose-related reversal of thermal hyperalgesia
